Data as given in ChEMBL document CHEMBL2086295, “The design, synthesis, in silico ADME profiling, antiplasmodial and antimycobacterial evaluation of new arylamino quinoline derivatives” (Eur J Med Chem, 2012).
≈ marks a conversion by molar mass, not a printed value.

Assays:
[1] = system: Mycobacterium tuberculosis; test: Antimycobacterial activity against Mycobacterium tuberculosis H37Rv ATCC 27294 after 10 days by low oxygen recovery assay; assay type: functional; details: for MIC90: Mycobacterium tuberculosis, H37Rv ATCC 27294, 240 h
[2] = system: Plasmodium falciparum; test: Antiplasmodial against chloroquine-rsistant Plasmodium falciparum W2 after 2 days by flow cytometry; assay type: functional, organism-based; details: W2, 48 h
[3] = Kinetic solubility of the compound at pH 7.4; assay type: physicochemical; details: buffer, read-out: Kinetic_solubility
[4] = system: Plasmodium falciparum; test: Antiplasmodial against chloroquine-sensitive Plasmodium falciparum 3D7 assessed as inhibition of [3H]hypoxanthine incorporation after 24 hrs by scintillation counting; assay type: functional, organism-based
[5] = system: Plasmodium falciparum; test: Antiplasmodial against chloroquine-rsistant Plasmodium falciparum K1 assessed as inhibition of [3H]hypoxanthine incorporation after 24 hrs by scintillation counting; assay type: functional, organism-based
[6] = system: Mycobacterium tuberculosis; test: Antimycobacterial activity against Mycobacterium tuberculosis H37Rv ATCC 27294 after 7 days by microplate alamar blue assay; assay type: functional; details: for MIC90: Mycobacterium tuberculosis, H37Rv ATCC 27294, 168 h

Row | Structure (SMILES) | inhibition (INH) [1] | MIC90 [1] | IC50 [2] | solubility kinetic [3] | IC50 [4] | IC50 [5] | inhibition (INH) [6] | MIC90 [6]
1 | COc1ccc2nccc(C(c3nnnn3C(C)(C)C)N(C)C)c2c1 (stereo not given) | 42% | > 128 µM | > 10000 nM | 189 µM (≈ 64.5 µg/mL) | 1310 nM | 1310 nM | 16% | > 128 µM
2 | CCN(CC)C(c1ccnc2ccc(OC)cc12)c1nnnn1C(C)(C)C (stereo not given) | 94% | 123 µM (≈ 45.4 µg/mL) | > 10000 nM | 137 µM (≈ 50.4 µg/mL) | 2390 nM | 2390 nM | 83% | > 128 µM
3 | COc1ccc2nccc(C(c3nnnn3C(C)(C)C)N3CCCC3)c2c1 (stereo not given) | 30% | > 128 µM | > 10000 nM |  | 13800 nM | 13800 nM | 24% | > 128 µM
4 | COc1ccc2nccc(C(c3nnnn3C(C)(C)C)N3CCCCC3)c2c1 (stereo not given) | 64% | > 128 µM | > 10000 nM | 114 µM (≈ 43.5 µg/mL) | 647 nM | 2630 nM | 98% | 92.5 µM (≈ 35.2 µg/mL)
5 | COc1ccc2nccc(C(c3nnnn3C(C)(C)C)N3CCN(C)CC3)c2c1 (stereo not given) | 0% | > 128 µM | 8390 nM |  | 16800 nM | 7950 nM | 0% | > 128 µM
6 | COc1ccc2nccc(C(c3nnnn3C(C)(C)C)N3CCOCC3)c2c1 (stereo not given) | 32% | > 128 µM | > 10000 nM | 179 µM (≈ 68.3 µg/mL) | 980 nM | 1230 nM | 0% | > 128 µM
7 | COc1ccc2nccc(C(c3nnn[nH]3)N3CCOCC3)c2c1 (stereo not given) | 1% | > 128 µM | > 10000 nM | 202 µM (≈ 65.9 µg/mL) | 8620 nM | 6740 nM | 0% | > 128 µM
8 | CN(C)C(c1cc(C(F)(F)F)nc2c(C(F)(F)F)cccc12)c1nnnn1C(C)(C)C (stereo not given) |  |  |  |  |  | 4520 nM |  | > 160 µM
9 | CCN(CC)C(c1cc(C(F)(F)F)nc2c(C(F)(F)F)cccc12)c1nnnn1C(C)(C)C (stereo not given) |  |  |  |  |  | 2320 nM |  | > 160 µM
10 | O[C@@H](c1cc(C(F)(F)F)nc2c(C(F)(F)F)cccc12)[C@H]1CCCCN1 (relative stereo) [(S,R)-MEFLOQUINE] |  |  |  |  |  |  |  | 10 µM (≈ 3.78 µg/mL)
11 | NNC(=O)c1ccncc1 [ISONIAZID] | 64% | > 128 µM |  |  |  |  | 92% | 0.23 µM (≈ 0.0315 µg/mL)
12 | NC[C@H]1O[C@H](O[C@H]2[C@H](O)[C@@H](O[C@H]3O[C@H](CO)[C@@H](O)[C@H](N)[C@H]3O)[C@H](N)C[C@@H]2N)[C@H](O)[C@@H](O)[C@@H]1O [KANAMYCIN] |  |  |  |  |  |  |  | 3.12 µM (≈ 1.51 µg/mL)
13 | O=[N+]([O-])c1cn2c(n1)OC[C@@H](OCc1ccc(OC(F)(F)F)cc1)C2 [PRETOMANID] | 100% | 3.78 µM (≈ 1.36 µg/mL) |  |  |  |  | 99% | 0.12 µM (≈ 0.0431 µg/mL)
14 | C=C[C@H]1CN2CC[C@H]1C[C@H]2[C@H](O)c1ccnc2ccc(OC)cc12 [QUININE] | 98% | 122 µM (≈ 39.6 µg/mL) | 18.7 nM |  | 0.7 nM | 20.4 nM | 95% | 120 µM (≈ 38.8 µg/mL)
15 | CO[C@H]1/C=C/O[C@@]2(C)Oc3c(C)c(O)c4c(O)c(c(/C=N/N5CCN(C)CC5)c(O)c4c3C2=O)NC(=O)/C(C)=C\C=C\[C@H](C)[C@H](O)[C@@H](C)[C@@H](O)[C@@H](C)[C@H](OC(C)=O)[C@@H]1C [RIFAMPIN] | 98% | 1.93 µM (≈ 1.59 µg/mL) |  |  |  |  | 100% | 0.05 µM (≈ 0.0411 µg/mL)
16 | CN[C@@H]1[C@H](O[C@H]2[C@H](O[C@H]3[C@H](O)[C@@H](O)[C@H](N=C(N)N)[C@@H](O)[C@@H]3N=C(N)N)O[C@@H](C)[C@]2(O)C=O)O[C@@H](CO)[C@H](O)[C@H]1O [STREPTOMYCIN] |  |  |  |  |  |  |  | 0.4 µM (≈ 0.233 µg/mL)
